# From patent EP0654028B1, “3- AND 5-SUBSTITUTED 1,2,3,4-OXATRIAZOLE-5-IMINE COMPOUNDS, A PROCESS FOR THE PREPARATION THEREOF, A PHARMACEUTICAL PREPARATION CONTAINING SAID COMPOUNDS AND THE USE OF SAID COMPOUNDS FOR THE PREPARATION OF MEDICAMENTS” (A/S GEA Farmaceutisk Fabrik, priority 1992, dated 1994)
# Test system: blood platelets (thrombocytes)
# Test: Inhibition of ADP-induced blood platelet aggregation in platelet-rich plasma (aggregometer measurement, Born)
# Format: cell-based, healthy testees
# Settings: not given
row,SMILES,inhibition of blood platelet aggregation (result in words)
1,"O=[N+]([O-])OCC(CO[N+](=O)[O-])O[N+](=O)[O-] [GTN, nitroglycerine, reference compound]",inactive

# Same assay, conditions: PRP from citrate stabilized venous blood, 37°C, test substance incubated three minutes, ADP 2 to 4 µM as pro-aggregating substance; linear regression; read-out: IC₅₀
row,SMILES,IC50 [nM]
1,"CC(=O)Nc1ccc(S(=O)(=O)[N-]c2n[n+](-c3cccc(Cl)c3C)no2)cc1 [Example 3, 3-(3-chloro-2-methylphenyl)-1,2,3,4-oxatriazole-5-(N-4-acetylaminophenylsulphamoyl)imine]",1010
2,"[NH-]c1c[n+](N2CCOCC2)no1 [SIN-1, reference compound]",3900
3,"Cc1c(Cl)cccc1-[n+]1noc([N-]S(=O)(=O)C[C@]23CCC(CC2=O)C3(C)C)n1 [Example 4, 3-(3-chloro-2-methylphenyl)-1,2,3,4-oxatriazole-5-(N-(1S)-(+)-10-camphorylsulphamoyl)imine]",80
4,"Cc1c(Cl)cccc1-[n+]1noc([N-]C(=O)NS(=O)(=O)c2ccccc2)n1 [Example 1, 3-(3-chloro-2-methylphenyl)-1,2,3,4-oxatriazole-5-(N-phenylsulphonylcarbamoyl) imine]",490
5,"CCOC(=O)CNC(=O)[N-]c1n[n+](-c2cccc(Cl)c2C)no1 [Example 8, 3-(3-chloro-2-methylphenyl)-1,2,3,4-oxatriazole-5-(N-carbethoxymethylcarbamoyl)imine]",7600

# The next lines start with the values.
row,IC50 [nM],SMILES
1,7900,"CCOC(=O)C(Cc1ccccc1)NC(=O)[N-]c1n[n+](-c2cccc(Cl)c2C)no1 (stereo not shown) [Example 9, 3-(3-chloro-2-methylphenyl)-1,2,3,4-oxatriazole-5(N-2-carbamoyl-3-phenylpropionic acid ethyl ester)imine]"
2,370,"CC(=O)Nc1nc(C)c(S(=O)(=O)[N-]c2n[n+](-c3cccc(Cl)c3C)no2)s1 [Example 2, 3-(3-chloro-2-methylphenyl)-1,2,3,4-oxatriazole-5-(N-2-acetamido-4-methyl-5-thiazolesulphamoyl)imine]"
3,160,"CCOC(=O)NC(=O)[N-]c1n[n+](-c2cccc(Cl)c2C)no1 [Example 7, 3-(3-chloro-2-methylphenyl)-1,2,3,4-oxatriazole-5-(N-carbethoxy-carbamoyl)imine]"
4,2980,"CCOC(=O)c1ccc(NC(=O)[N-]c2n[n+](-c3cccc(Cl)c3C)no2)cc1 [Example 5, 3-(3-chloro-2-methylphenyl)-1,2,3,4-oxatriazole-5-(N-4-carbethoxyphenylcarbamoyl)imine]"
5,2310,"COC(=O)C(C)NC(=O)[N-]c1n[n+](-c2cccc(Cl)c2C)no1 (stereo not shown) [Example 10, 3-(3-chloro-2-methylpheny1)-1,2,3,4-oxatriazole-5-(N-2-carbamoylpropionic acid methyl ester)imine]"

# Same assay, conditions: read-out: IC₅₀
row,SMILES,IC50 [nM]
1,"COc1ccc(S(=O)(=O)NC(=O)[N-]c2n[n+](-c3cccc(Cl)c3C)no2)cc1 [Example 6, 3-(3-chloro-2-methylphenyl)-1,2,3,4-oxatriazole-5-(N-4-methoxy-phenylsulphonylcarbamoyl)imine]",670
2,"O=[N+]([O-])OCC(CO[N+](=O)[O-])O[N+](=O)[O-] [GTN, nitroglycerine, reference compound]",100000
